Patent US5698538A, “Boronic acid and ester inhibitors of thrombin” (The DuPont Merck Pharmaceutical Company, priority 1996, dated 1997)

Assays:
Type in all cases: biochemical
human thrombin = biological target: T1, human thrombin (Homo sapiens, UniProt P00734); experiment: Inhibition of human thrombin (chromogenic substrate S2238), inhibitory constant Ki; conditions: 0.2-0.5 nM human thrombin, S2238, pH 7.5, 30 minutes; read-out: Ki values for inhibition of Serine Proteases: Thrombin
T1 construct: purchased Enzyme Research Laboratories, South Bend, Ind
Method: (§1) The effectiveness of compounds of the present invention as inhibitors of blood coagulation proteases was determined using purified human proteases and synthetic substrates following procedures similar to those described in Kettner et al. (1990).
(§2) For these assays, the rate of enzymatic (thrombin, Factor Xa, and Factor VIIa) hydrolysis of chromogenic substrates (S2238 (H-D-Phe-Pip-Arg-pNA), S2222, and S2288, respectively; Kabi Pharmacia, Franklin, Ohio.) was measured both in the absence and presence of compounds of the present invention. […] A decrease in the rate of absorbance change at 405 nm in the presence of inhibitor is indicative of enzyme inhibition. The results of this assay are expressed as inhibitory constant, Ki.
(§3) Thrombin and Xa determinations were made in 0.10M sodium phosphate buffer, pH 7.5, containing 0.20M NaCl, and 0.5% PEG 8000. VIIa determinations were made in 0.05M tris buffer, pH 7.6, containing 0.10M NaCl, 4 mM CaCl2, and 0.1% bovine serum albumin. The Michaelis constant, Km, for substrate hydrolysis was determined at 5° C. using the method of Lineweaver and Burk.
(§4) Values of Ki were determined by allowing 0.2-0.5 nM human thrombin or human factor Xa (Enzyme Research Laboratories, South Bend, Ind.), or 50 nM human factor VIIa (BiosPacific, Emeryville, Calif.) react with the substrate (0.20 mM-1 mM) in the presence of inhibitor. Reactions were allowed to go for 30 minutes and the velocities (rate of absorbance change vs time) were measured in the time frame of 25-30 minutes. The following relationship was used to calculate Ki values. [formula] where: vo is the velocity of the control in the absence of inhibitor;
(§5) vs is the velocity in the presence of inhibitor;
(§6) I is the concentration of inhibitor;
(§7) Ki is the dissociation constant of the enzyme: inhibitor complex;
(§8) S is the concentration of substrate;
(§9) Km is the Michaelis constant.

human factor Xa = biological target: T2, human factor Xa (Homo sapiens, UniProt P00742); experiment: Inhibition of human factor Xa (chromogenic substrate S2222), inhibitory constant Ki; conditions: S2222, pH 7.5, 30 minutes, read-out: Ki values for inhibition of Serine Proteases: Factor Xa
T2 construct: purchased Enzyme Research Laboratories, South Bend, Ind
Method: as §1, §2, §3, §4, §5, §6, §7, §8, §9

human factor VIIa = biological target: T3, human factor VIIa (Homo sapiens, UniProt P08709); experiment: Inhibition of human factor VIIa (chromogenic substrate S2288), inhibitory constant Ki; conditions: 50 nM human factor VIIa, S2288, pH 7.6, 4 mM CaCl2, 30 minutes; read-out: Ki values for inhibition of Serine Proteases: Factor VIIa
T3 construct: Factor VIIa in the extrinsic pathway; purchased BiosPacific, Emeryville, Calif
T3 sequence (P08709 213-466 limits assumed): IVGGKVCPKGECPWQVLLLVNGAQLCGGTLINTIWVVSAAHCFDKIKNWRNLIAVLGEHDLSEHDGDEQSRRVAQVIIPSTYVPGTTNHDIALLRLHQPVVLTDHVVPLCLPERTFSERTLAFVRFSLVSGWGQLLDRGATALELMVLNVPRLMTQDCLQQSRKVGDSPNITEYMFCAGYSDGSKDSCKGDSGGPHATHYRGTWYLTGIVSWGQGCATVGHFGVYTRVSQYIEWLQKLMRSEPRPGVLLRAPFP
T3 sequence (P08709 61-212 partner limits assumed): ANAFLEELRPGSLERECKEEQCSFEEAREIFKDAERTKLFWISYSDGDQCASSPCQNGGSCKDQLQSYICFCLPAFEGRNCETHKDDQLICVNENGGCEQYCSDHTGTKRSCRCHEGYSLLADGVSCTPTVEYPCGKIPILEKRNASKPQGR
Method: as §1, §2, §3, §4, §5, §6, §7, §8, §9

T2 sequence (P00742 235-488 limits assumed): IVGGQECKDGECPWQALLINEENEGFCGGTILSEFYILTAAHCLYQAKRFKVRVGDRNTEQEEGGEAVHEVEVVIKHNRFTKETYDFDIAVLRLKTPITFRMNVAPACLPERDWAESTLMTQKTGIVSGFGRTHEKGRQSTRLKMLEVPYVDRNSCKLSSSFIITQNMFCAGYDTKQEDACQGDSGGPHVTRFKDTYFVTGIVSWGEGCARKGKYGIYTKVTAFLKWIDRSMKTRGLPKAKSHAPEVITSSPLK
T2 sequence (P00742 41-179 partner limits assumed): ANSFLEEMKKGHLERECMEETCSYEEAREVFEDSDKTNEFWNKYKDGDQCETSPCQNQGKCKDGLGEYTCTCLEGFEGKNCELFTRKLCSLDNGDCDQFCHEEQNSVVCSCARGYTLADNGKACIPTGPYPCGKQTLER

| SMILES | Ki (human thrombin) [nM] | Ki (human factor Xa) [nM] | Ki (human factor VIIa) [nM] |
| --- | --- | --- | --- |
| CC1(C)C2CC3OB([C@H](CCCCN)NC(=O)Cn4nc(CCc5ccccc5)nc4COCc4ccccc4)OC3(C)C1C2 (single isomer, unassigned) [Example 2781] | < 500 | 500 to 50000 | 500 to 50000 |
| CC1(C)C2CC3OB([C@H](CCCCN)NC(=O)c4cnc(-c5ccccc5)nc4-c4ccccc4)OC3(C)C1C2 (single isomer, unassigned) [Example 3465] | < 500 | 500 to 50000 | 500 to 50000 |
| CC1(C)[C@@H]2C[C@H]3OB([C@H](CCCNC(=N)N)NC(=O)c4cccc(-c5ccccc5)c4)O[C@@]3(C)[C@H]1C2 [Example 2] | < 500 | < 500 | < 500 |
| CC1(C)[C@@H]2C[C@H]3OB([C@H](CCCSC(=N)N)NC(=O)c4cccc(-c5ccccc5)c4)O[C@@]3(C)[C@H]1C2 [Example 35] | < 500 | < 500 | 500 to 50000 |
| CC1(C)[C@@H]2C[C@H]3OB([C@H](CCCCN)NC(=O)c4cccc(-c5ccccc5)c4)O[C@@]3(C)[C@H]1C2 [Example 68] | < 50000 | 500 to 50000 | < 500 |
| CC1(C)[C@@H]2C[C@H]3OB([C@H](CCCNC(=N)N)NC(=O)c4ccc(-c5ccccc5)cc4F)O[C@@]3(C)[C@H]1C2 [Example 199] | < 500 | < 500 | < 500 |
| CC1(C)[C@@H]2C[C@H]3OB([C@H](CCCNC(=N)N)NC(=O)c4ccc(-c5ccccc5)cc4[N+](=O)[O-])O[C@@]3(C)[C@H]1C2 [Example 203] | < 500 | < 500 | < 500 |
| Cc1cc(-c2ccccc2S(=O)(=O)NC(C)(C)C)ccc1C(=O)N[C@@H](CCCNC(=N)N)B(O)O [Example 224] | < 500 | < 500 | < 500 |
| Cc1cc(-c2ccccc2S(N)(=O)=O)ccc1C(=O)N[C@@H](CCCNC(=N)N)B1O[C@@H]2C[C@@H]3C[C@@H](C3(C)C)[C@]2(C)O1 [Example 227] | < 500 | < 500 | 500 to 50000 |
| COC(=O)NS(=O)(=O)c1ccccc1-c1ccc(C(=O)N[C@@H](CCCNC(=N)N)B2O[C@@H]3C[C@@H]4C[C@@H](C4(C)C)[C@]3(C)O2)c(C)c1 [Example 231] | < 500 | < 500 | 500 to 50000 |
| CC(C)(C)NS(=O)(=O)c1ccccc1-c1ccc(C(=O)N[C@@H](CCCNC(=N)N)B2O[C@@H]3C[C@@H]4C[C@@H](C4(C)C)[C@]3(C)O2)cc1 [Example 261] | < 500 | < 500 | < 500 |
| CC(C)(C)NS(=O)(=O)c1ccccc1-c1ccc(C(=O)N[C@@H](CCCNC(=N)N)B2O[C@@H]3C[C@@H]4C[C@@H](C4(C)C)[C@]3(C)O2)c(Cl)c1 [Example 262] | < 500 | < 500 | < 500 |
| CC(C)(C)NS(=O)(=O)c1ccccc1-c1ccc(C(=O)N[C@@H](CCCNC(=N)N)B(O)O)cc1 [Example 263] | < 500 | < 500 | < 500 |
| Cc1cc(-c2cccc(NC(=O)OC(C)(C)C)c2)ccc1C(=O)N[C@@H](CCCNC(=N)N)B1O[C@@H]2C[C@@H]3C[C@@H](C3(C)C)[C@]2(C)O1 [Example 283] | < 500 | < 500 | 500 to 50000 |
| CCN(CC)S(=O)(=O)c1ccccc1-c1ccc(C(=O)N[C@@H](CCCNC(=N)N)B2O[C@@H]3C[C@@H]4C[C@@H](C4(C)C)[C@]3(C)O2)c(C)c1 [Example 286] | < 500 | < 500 | < 500 |
| CC1(C)[C@@H]2C[C@H]3OB([C@H](CCCNC(=N)N)NC(=O)c4ccc(-c5ccccc5)c([N+](=O)[O-])c4)O[C@@]3(C)[C@H]1C2 [Example 298] | < 500 | < 500 | < 500 |
| CC1(C)[C@@H]2C[C@H]3OB([C@H](CCCNC(=N)N)NC(=O)c4ccc(-c5ccccc5)c(N)c4)O[C@@]3(C)[C@H]1C2 [Example 299] | < 500 | < 500 | < 500 |
